Data reported in PMC8838585, “Development and Validation of a Novel HPLC Method to Analyse Metabolic Reaction Products Catalysed by the CYP3A2 Isoform: In Vitro Inhibition of CYP3A2 Enzyme Activity by Aspirin (Drugs Often Used Together in COVID-19 Treatment)” (Molecules, 2022).
Entries after “also recorded” stand apart in the source; their conditions may differ.

Legend:
[1] = Solution stability of working standards at ambient temperature, intraday and interday, HPLC; type: physicochemical; conditions: for Solution stability: intraday and interday analysis
Description: Stability samples were analyzed in triplicate.
Experiments were performed in triplicate, and the results are summarized below in Table 8.

[2] = target: T1, CYP3A2 (Rattus norvegicus, UniProt P05183); assay: Inhibition of dexamethasone 6β-hydroxylation (CYP3A2 activity) by aspirin in rat liver microsomes, HPLC; type: in vitro ADME; conditions: for Clint: Vmax/Km; for Vmax: n = 3
T1 construct: tissue Merck; host or cells: pooled liver microsomes from male Sprague Dawley rats
T1 sequence (P05183 1-504): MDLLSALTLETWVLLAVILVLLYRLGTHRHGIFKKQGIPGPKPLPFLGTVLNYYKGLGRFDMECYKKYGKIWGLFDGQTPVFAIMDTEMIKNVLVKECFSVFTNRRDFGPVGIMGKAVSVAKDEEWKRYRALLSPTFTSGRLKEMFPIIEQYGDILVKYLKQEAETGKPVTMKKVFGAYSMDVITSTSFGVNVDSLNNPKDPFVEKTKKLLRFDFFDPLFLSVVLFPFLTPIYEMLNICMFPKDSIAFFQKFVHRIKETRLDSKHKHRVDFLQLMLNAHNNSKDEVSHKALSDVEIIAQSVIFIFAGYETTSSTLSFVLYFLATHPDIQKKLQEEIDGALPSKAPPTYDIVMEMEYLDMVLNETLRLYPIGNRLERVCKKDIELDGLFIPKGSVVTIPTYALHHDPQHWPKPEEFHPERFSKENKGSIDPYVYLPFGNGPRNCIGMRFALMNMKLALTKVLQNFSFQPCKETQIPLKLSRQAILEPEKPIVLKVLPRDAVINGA
Description: Assay development and validation were carried out using a LC-2010A HT Module HPLC system (Shimadzu, Toyko, Japan). […] The chromatographic separation was performed at 25 °C and at a flow rate of 0.6 mL/min. A 10 µL solution volume was injected for HPLC analysis, and all the components were detected at the 243 nm wavelength. Table 11 provides information concerning efficiency (N), where N = 5.54 × (tR/W½) and W½ = width at half peak height; plate height (H), where H(cm) = column length/N; asymmetry factor (AsF), where AsF = B/A, and A is the distance from the leading edge of the peak to the midpoint of the peak measured at 10% of peak height, and B is the distance from the midpoint of the peak to the trailing edge of the peak measured at 10% of the peak height; and resolution (Rs), where Rs = 2∆tR/0.5(W1 + W2), and W is the width at the peak base.
Ice-cold-grade acetonitrile containing 15 µM 4-hydroxyoctanophenone (as an internal standard) was added to terminate the reaction. […] The polar extracts were evaporated to dryness, and the residues were dissolved in the mobile phase (70% acetonitrile and 30% water, v/v) and made up to 1000 µL in volume. An amount of 10 µL of each sample was injected into the HPLC instrument for analysis.
Data were analysed using Microsoft Excel 2010 software for validation and the kinetic parameters. All results are shown as mean ± S.D. The least-square regression analysis was performed to calculate the concentration of the metabolite produced by the CYP reaction. Secondary Lineweaver–Burk plots and Michaelis–Menten plots were plotted to find kinetic parameters such as Ki, Vmax, Km, Clint, and α^,. Inhibition was assumed to be competitive based on the obtained data and based on a visual inspection of the Lineweaver–Burk plot. […] Km values were used to calculate the percentage of inhibition.

[3] = substrate: C[C@@H]1C[C@H]2[C@@H]3CCC4=CC(=O)C=C[C@]4(C)[C@@]3(F)[C@@H](O)C[C@]2(C)[C@@]1(O)C(=O)CO; assay: cells, lysate or membranes named; conditions: other: 0 µM aspirin (no inhibitor), rat liver microsomes 0.5 mg/mL, n = 3; pH 7.4; 37.0 °C
Description: Data were analysed using Microsoft Excel 2010 software for validation and the kinetic parameters. All results are shown as mean ± S.D. The least-square regression analysis was performed to calculate the concentration of the metabolite produced by the CYP reaction. Secondary Lineweaver–Burk plots and Michaelis–Menten plots were plotted to find kinetic parameters such as Ki, Vmax, Km, Clint, and α^,. […] Km values were used to calculate the percentage of inhibition.

[4] = male, rat, liver microsomes, pH 7.4, probe dexamethasone (6β-hydroxylation), 10, 20, 30, 40 and 50 µM

C[C@@H]1C[C@H]2[C@@H]3C[C@@H](O)C4=CC(=O)C=C[C@]4(C)[C@@]3(F)[C@@H](O)C[C@]2(C)[C@@]1(O)C(=O)CO [6β-hydroxydexamethasone, 6β-Hydroxydexamethasone]
% Recovery ([1]; Interday 1, 0.3 µM): 89.49% | % Recovery ([1]; Interday 1, 0.5 µM): 92.64% | % Recovery ([1]; Interday 1, 0.85 µM): 84.06% | % Recovery ([1]; Interday 2, 0.3 µM): 105.46% | % Recovery ([1]; Interday 2, 0.5 µM): 94.15% | % Recovery ([1]; Interday 2, 0.85 µM): 81.57% | % Recovery ([1]; Interday 3, 0.3 µM): 106.90% | % Recovery ([1]; Interday 3, 0.5 µM): 92.10% | % Recovery ([1]; Interday 3, 0.85 µM): 80.51% | % Recovery ([1]; intraday 0 h, 0.3 µM): 98.18% | % Recovery ([1]; intraday 0 h, 0.5 µM): 94.82% | % Recovery ([1]; intraday 0 h, 0.85 µM): 99.34% | % Recovery ([1]; intraday 5 h, 0.3 µM): 97.22% | % Recovery ([1]; intraday 5 h, 0.5 µM): 87.58% | % Recovery ([1]; intraday 5 h, 0.85 µM): 90.45% | % Recovery ([1]; intraday 10 h, 0.3 µM): 88.89% | % Recovery ([1]; intraday 10 h, 0.5 µM): 87.75% | % Recovery ([1]; intraday 10 h, 0.85 µM): 92.98% | Solution stability [1]: stable

CC(=O)Oc1ccccc1C(=O)O [Aspirin, acetylsalicylic acid]
IC50 [2]: 191 µM | á ([2]; 50 µM aspirin): 1.03 ± 0.01 | á ([2]; 100 µM aspirin): 1.02 ± 0.06 | á ([2]; 200 µM aspirin): 1.04 ± 0.01 | Mode of inhibition of CYP3A2 ([2]; Lineweaver-Burk plot, rat liver microsomes): competitively inhibits; also recorded: competitive inhibitor | Clint ([2]; with 50 µM aspirin): 0.0005 ± 4.00 × 10^−6 µM^−2∙min^−1 | Clint ([2]; with 100 µM aspirin): 0.0005 ± 5.00 × 10^−5 µM^−2∙min^−1 | Clint ([2]; with 200 µM aspirin): 0.0004 ± 1.00 × 10^−5 µM^−2∙min^−1 | Alpha prime (α') values ([2]; aspirin 50, 100 and 200 µM): greater than 1.0 | inhibition at 40 min, 50 µM [2, 4]: 12.4 ± 1.2% | inhibition at 40 min, 100 µM [2, 4]: 23.3 ± 3.3% | inhibition at 40 min, 200 µM [2, 4]: 53.6 ± 1.76% | Ki ([2]; read-out: Ki (inhibition constant)): 95.5 µM | Strength of inhibition of CYP3A2 isoform activity ([2]; weak if IC50 more than 50 µM): weak inhibitory effect | Vmax ([2]; with 50 µM aspirin): 0.0123 ± 1.15 × 10^−4 µM^−1∙min^−1 | Vmax ([2]; with 100 µM aspirin): 0.0127 ± 7.94 × 10^−4 µM^−1∙min^−1 | Vmax ([2]; with 200 µM aspirin): 0.0123 ± 1.73 × 10^−4 µM^−1∙min^−1

C[C@@H]1C[C@H]2[C@@H]3CCC4=CC(=O)C=C[C@]4(C)[C@@]3(F)[C@@H](O)C[C@]2(C)[C@@]1(O)C(=O)CO [Dexamethasone]
% Recovery ([1]; Interday 1, 40 µM): 80.04% | % Recovery ([1]; Interday 1, 110 µM): 85.81% | % Recovery ([1]; Interday 1, 185 µM): 98.26% | % Recovery ([1]; Interday 2, 40 µM): 87.31% | % Recovery ([1]; Interday 2, 110 µM): 91.30% | % Recovery ([1]; Interday 2, 185 µM): 104.78% | % Recovery ([1]; Interday 3, 40 µM): 85.29% | % Recovery ([1]; Interday 3, 110 µM): 82.36% | % Recovery ([1]; Interday 3, 185 µM): 101.20% | % Recovery ([1]; intraday 0 h, 40 µM): 88.51% | % Recovery ([1]; intraday 0 h, 110 µM): 80.58% | % Recovery ([1]; intraday 0 h, 185 µM): 95.66% | % Recovery ([1]; intraday 5 h, 40 µM): 80.50% | % Recovery ([1]; intraday 5 h, 110 µM): 84.03% | % Recovery ([1]; intraday 5 h, 185 µM): 109.49% | % Recovery ([1]; intraday 10 h, 40 µM): 80.80% | % Recovery ([1]; intraday 10 h, 110 µM): 84.43% | % Recovery ([1]; intraday 10 h, 185 µM): 110.03% | Solution stability [1]: stable for up to three days

B1: CYP3A2 (Rattus norvegicus) (protein)
chain: MDLLSALTLETWVLLAVILVLLYRLGTHRHGIFKKQGIPGPKPLPFLGTVLNYYKGLGRFDMECYKKYGKIWGLFDGQTPVFAIMDTEMIKNVLVKECFSVFTNRRDFGPVGIMGKAVSVAKDEEWKRYRALLSPTFTSGRLKEMFPIIEQYGDILVKYLKQEAETGKPVTMKKVFGAYSMDVITSTSFGVNVDSLNNPKDPFVEKTKKLLRFDFFDPLFLSVVLFPFLTPIYEMLNICMFPKDSIAFFQKFVHRIKETRLDSKHKHRVDFLQLMLNAHNNSKDEVSHKALSDVEIIAQSVIFIFAGYETTSSTLSFVLYFLATHPDIQKKLQEEIDGALPSKAPPTYDIVMEMEYLDMVLNETLRLYPIGNRLERVCKKDIELDGLFIPKGSVVTIPTYALHHDPQHWPKPEEFHPERFSKENKGSIDPYVYLPFGNGPRNCIGMRFALMNMKLALTKVLQNFSFQPCKETQIPLKLSRQAILEPEKPIVLKVLPRDAVINGA
Km [3]: 21.23 ± 0.51 µM
